The results in this text go back to patent US7968595B2, “Substituted 4-aryl-chromene as activator of caspases and inducer of apoptosis and as antivascular agent and the use thereof” (Cytovia, Inc., priority 2006, dated 2011).

The assay has as its system MX1 human breast cancer tumors. The assay can be described thus: In vivo antitumor activity in MX-1 model, combination with cisplatin and doxorubicin. Further details: species or system mice. Particulars: 1R 40 mg/kg, IV. The protocol:
MX1 human breast cancer tumors were obtained from the NCI-FCRDC and maintained as tumors in nude mice. Tumor bits were implanted with a trocar into the right mammary area of female nu/nu mice and allowed to grow to an average size of 200-250 mg, about 12 days after being implanted. Animals were randomized and assigned to study groups of 8-10 animals/group. Body weight were determined and tumor size were measured by calipers and converted to volume by the standard formula of Vol=L×W^2/2. Compound 1R was formulated in 7% PEG400/9% Tween80/84% D5W and administered IV via the tail vein at the indicated days and doses. Day 1 of the study was the first day of treatment. Survival time was the number of days for the tumor to reach 1000 mg or death, whichever occurred earliest. Median survival is the median for the group.
Mice implanted with MX1 human breast cancer tumors were treated with compound 1R as described in EXAMPLE 11. Cisplatin was administered IP whereas doxorubicin was administered IV at the indicated doses.

Where [1] appears, read: day 1, 2, 3 (QD × 3), first study (cisplatin day 2).
Setting [2] is: day 1, 8, 15 (QW × 3), second study (cisplatin day 2, 9).
Setting [3] is: day 1, 8, 15 (QW × 3), third study (doxorubicin).

As for `COc1cc([C@H]2C(C#N)=C(N)Oc3c2ccc(N)c3N)cc(Br)c1OC` [Compound 1R, R(−)-2,7,8-triamino-4-(3-bromo-4,5-dimethoxy-phenyl)-3-cyano-4H-chromene], the Median survival reads like this: under setting [1], 38.5 days; under setting [2], 35 days; under setting [3], 40 days. The “Number of tumor free mice at day 91” value is recorded as 4 of 9 under setting [1], 1 of 7 under setting [2] and 1 of 8 under setting [3].
